Source: ChEMBL document CHEMBL1275318, “The preparation of bi-functional organophosphine oxides as potential antitumor agents” (Eur J Med Chem, 2010)
In brackets after ≈: the same amount, converted by molar mass. Several values for one entry are separate records, joined by “and”; a condition that tells them apart may be missing. Equal values may be shown once. Activity calls are given as the source filed them. The calls are words filed in the database; no cut-off is given here.

Assays:
[1] = Cytotoxicity against human Hep3B cells after 48 hrs by SRB assay; format: functional, cell-based, Hep 3B2
[2] = test system: Mus musculus; assay: Toxicity in human Hep3B cells xenografted athymic nude mouse assessed as induction of necrotic damage in liver at 10 mg/kg/day, ip for 4 consecutive days; format: organism-based, Hep 3B2; set-up: route intraperitoneal; settings: in vivo
[3] = test system: Mus musculus; assay: Toxicity in human Hep3B cells xenografted athymic nude mouse assessed as induction of necrotic damage in kidney at 10 mg/kg/day, ip for 4 consecutive days; format: organism-based, Hep 3B2; set-up: route intraperitoneal; settings: in vivo
[4] = test system: Hep 3B2; assay: Antitumor activity against human Hep3B cells xenografted in athymic nude mouse assessed as retardation of tumor growth at 10 mg/kg/day, ip for 4 consecutive days; format: functional, organism-based
[5] = Homo sapiens, Hep3B, 48 h, read-out: IC50

SMILES	IC50 [1, 5] [µg/mL]	IC50 ([1]; hep 3b2)	Activity [2]	Activity [3]	inhibition [4]
COc1cc(P(c2ccccc2)c2ccccc2)c(-c2c(P(c3ccccc3)c3ccccc3)cc(OC)nc2OC)c(OC)n1	> 50				
COc1cc(P(=O)(c2ccccc2)c2ccccc2)c(-c2c(P(=O)(c3ccccc3)c3ccccc3)cc(OC)nc2OC)c(OC)n1	47 (≈ 69.5 µM)	43 µg/mL and 42 µg/mL			
O=P(c1ccccc1)(c1ccccc1)c1ccc2ccccc2c1-c1c(P(=O)(c2ccccc2)c2ccccc2)ccc2ccccc12	14 (≈ 21.4 µM)	12 µg/mL (≈ 18.3 µM)	Non-toxic	Non-toxic	Active
c1ccc(P(c2ccccc2)c2ccc3ccccc3c2-c2c(P(c3ccccc3)c3ccccc3)ccc3ccccc23)cc1	> 50				
